From patent US20110003858A1, “MULTIMERIC HETEROCYCLIC COMPOUNDS USEFUL AS NEUTROPHIL ELASTASE INHIBITORS” (priority 2006, published 2011)

Biological target: T1, Human Neutrophil Elastase (HNE) (Homo sapiens, UniProt P08246)
T1 construct: Human Neutrophil Elastase (HNE) purified from serum; purchased Calbiochem 324681; host or cells: natural enzyme purified from human serum (so in the source)
T1 sequence (P08246 30-247 limits assumed): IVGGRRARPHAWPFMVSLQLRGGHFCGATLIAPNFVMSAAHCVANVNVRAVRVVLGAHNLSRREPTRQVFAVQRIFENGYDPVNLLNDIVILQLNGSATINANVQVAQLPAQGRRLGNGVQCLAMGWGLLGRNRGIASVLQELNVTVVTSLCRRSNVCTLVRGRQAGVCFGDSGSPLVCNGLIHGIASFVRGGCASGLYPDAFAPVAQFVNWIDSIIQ
Test: Human Neutrophil Elastase Quenched-FRET Assay
Format: biochemical
Details: HNE 1.7 nM, substrate MeOSuc-AAPV-AMC 100 μM, pH 7.5; read-out: Inhibition of HNE IC50
Method: Human Neutrophil Elastase Quenched-FRET Assay
The assay uses Human Neutrophil Elastase (HNE) purified from serum (Calbiochem art. 324681; Ref. Baugh, R. J. et al., 1976, Biochemistry. 15, 836-841). HNE was stored in 50 mM sodium acetate (NaOAc), 200 mM sodium chloride (NaCl), pH 5.5 with added 30% glycerol at −20° C. The protease substrate used was Elastase Substrate V Fluorogenic, MeOSuc-AAPV-AMC (Calbiochem art. 324740; Ref. Castillo, M. J. et al., 1979, Anal. Biochem. 99, 53-64). The substrate was stored in dimethyl sulphoxide (DMSO) at −20° C. The assay additions were as follows: Test compounds and controls were added to black 96-well flat-bottom plates (Greiner 655076), 1 μL in 100% DMSO, followed by 30 μL HNE in assay buffer with 0.01% Triton (trade mark) X-100 detergent. The assay buffer constitution was: 100 mM Tris(hydroxymethyl)aminomethane (TRIS) (pH 7.5) and 500 mM NaCl. The enzyme and the compounds were incubated at room temperature for 15 minutes. Then 30 μl substrate in assay buffer was added. The assay was incubated for 30 minutes at room temperature. The concentrations of HNE enzyme and substrate during the incubation were 1.7 nM and 100 μM, respectively. […] Fluorescence was measured on a Wallac 1420 Victor 2 instrument at settings: Excitation 380 nm, Emission 460 nm. IC50 values were determined using Xlfit curve fitting using model 205.

Cc1c([S+]([O-])c2ccc(C#N)cc2)cc(C(=O)NCCOCCOCCNC(=O)c2cc([S+]([O-])c3ccc(C#N)cc3)c(C)n(-c3cccc(C(F)(F)F)c3)c2=O)c(=O)n1-c1cccc(C(F)(F)F)c1 (centres unmarked) [Example 1]
IC50: 0.61 nM

Cc1c(-c2ccnn2-c2ccc(C#N)cc2)cc(C(=O)NCC(O)CNC(=O)c2cc(-c3ccnn3-c3ccc(C#N)cc3)c(C)n(-c3cccc(C(F)(F)F)c3)c2=O)c(=O)n1-c1cccc(C(F)(F)F)c1 [Example 2, N,N′-(2-Hydroxypropane-1,3-diyl)bis(5-(1-(4-cyanophenyl)-1H-pyrazol-5-yl)-6-methyl-2-oxo-1-(3-(trifluoromethyl)phenyl)-1,2-dihydropyridine-3-carboxamide)]
IC50: 0.26 nM
